Experimental data taken from patent US8685976B2, “Cell adhesion promoting agent and method of promoting cell adhesion” (Kyoto University, priority 2008, dated 2014).

Experiments:
Jurkat cells = test: Enzymatic treatment of cells, cell adhesion, Jurkat; assay type: cell-based, human; details: heparinases 0.02 units/mL, chondroitinase ABC 0.1 units/mL
Procedure: (§1) In (A) and (B), Jurkat cells (A) or HepG2 cells (B) were pretreated with 0.02 units/mL of heparinase, heparitinase I, and heparitinase II, or 0.1 units/mL of protease-free chondroitinase ABC in a serum-free culture medium for 1 hour at 37° C. before evaluating cell adhesion. The treated cells were seeded onto adhesamine-added or fibronectin-coated plastic wells. The attached cells were counted at 5 hours after seeding. The concentrations of adhesamine and fibronectin were 6 μM and 5 μg/mL, respectively. Each point represents the means±SD. (C) and (D) show localization of Compound 4 in HepG2 cells treated with heparinase/heparitinase I/heparitinase II (C) or chondroitinase ABC (D).
Jurkat cells (5×10^4) were cultured in 100 μL of RPMI and treated with a combination of heparinase, heparitinase I, and heparitinase II (0.02 units/mL) or chondroitinase ABC (0.1 units/mL) for 30 min at room temperature. The ability of the treated cells to respond to adhesamine was evaluated by counting the cells that were attached to plastic wells of a 96-well plate in the presence of adhesamine (6 μM).

HepG2 cells = test: Enzymatic treatment of cells, cell adhesion, HepG2; assay type: cell-based; details: heparinases 0.02 units/mL, chondroitinase ABC 0.1 units/mL
Procedure: as §1
The effects of these GAG-degrading enzymes on the intact or adhesamine-enhanced attachment of HepG2 cells were examined. […] As observed in Jurkat cells, adhesamine-induced cell adhesion was canceled by heparan sulfate-degrading enzymes, but not by chondroitinase ABC (FIG. 9B).

chondroitinase ABC
effect on adhesamine-induced cell attachment (Jurkat cells): no detectable effects | inhibition of intact attachment of HepG2 cells (HepG2 cells): 7%
